Read-outs that look alike come from different tables or passages of the source.
Key:
[1] = tested on: T47D cells; assay: Cellular growth inhibition assay for T47D cells (CellTiter-Glo 2.0, 72 hours); assay type: cell-based, human
Experimental: Exemplary compounds were tested for ability to inhibit the proliferation of T47D cells. T47D cells are a commercially available human breast cancer cell line.
T47D cells were purchased from American Type Cell Culture (ATCC Cat #HTB-133) and then seeded on poly-D-lysine coated, black clear-bottom 384-well plates at 3000/well in 25 μL Dulbecco's Modified Eagle Medium (DMEM) supplemented with 10% w/w Fetal bovine serum (FBS), 0.2 units/mL recombinant human insulin (Gibco Cat #12585014), and 1% w/w Pen-Strep. Pen-Strep is a commercially available mixture of penicillin G and streptomycin, which is used in mammalian cell culture media to prevent bacterial contamination. Dulbecco's Modified Eagle Medium (DMEM) supplemented with 10% w/w fetal bovine serum (FBS), 0.2 units/mL recombinant human insulin, and 1% w/w Pen-Strep is herein referred to as Treatment Medium. Following seeding of cells in the plates, the plates were spun at 300×g for 30 seconds, then equilibrated to room temperature for 30 minutes, and then deposited in a humidified tissue culture incubator maintained at 37° C. with 5% CO2.
At 24 hours after seeding of the cells, dilutions of test compound were prepared in DMSO and dissolved in Treatment Medium, to achieve a final DMSO concentration of 0.5% w/w, thereby providing the Test Compound Solution. A 25 μL aliquot of the Test Compound Solution was added to cells in the well plates. An equal volume of a solution containing DMSO and Treatment Medium was used as a negative control. Following treatment of cells with Test Compound Solution or said equal volume of a solution containing DMSO and Treatment Medium, the plates were spun at 300×g for 30 seconds, and then left in an incubator for 72 hours.
At the end of the treatment duration, cell viability was quantified with CellTiter-Glo 2.0 reagent (Promega Cat #G9243). For this purpose, plates were equilibrated to room temperature for 30 minutes, and then 25 μL of CellTiter-Glo 2.0 reagent was added to cells in the plate wells. Plates were then agitated on a shaker for two minutes at 500 rpm and subsequently incubated at room temperature for 10 minutes. Following incubation, the plates were spun at 3000×g for 30 seconds, then sealed with an optical adhesive cover, and luminescence readings were measured with an En Vision Plate Reader (Perkin Elmer).
Data was normalized using zero luminescence for baseline. A four-parameter non-linear regression curve fit was applied to dose-response data in GraphPad Prism data analysis software to determine the half-maximal growth inhibitory concentration (GI50) for each test compound.

[2] = tested on: T-Rex 293 cell line SC3 cells having increased expression of androgen receptor protein due to exposure to doxycycline; assay: Cellular growth inhibition, T-Rex 293 SC3 cells with doxycycline-induced androgen receptor (CellTiter-Glo 2.0, 72 hours); assay type: cell-based; conditions: T-Rex 293 SC3 cells with 10 ng/ml doxycycline (increased androgen receptor expression), 72 hours, CellTiter-Glo 2.0
[3] = tested on: VCaP cells; assay: Cellular growth inhibition assay for VCaP cells (CellTiter-Glo 2.0, 72 hours); assay type: cell-based, human; conditions: CellTiter-Glo 2.0
[4] = tested on: T-Rex 293 cell line SC3 cells lacking increased expression of androgen receptor protein; assay: Cellular growth inhibition, T-Rex 293 SC3 cells without doxycycline (CellTiter-Glo 2.0, 72 hours); assay type: cell-based; conditions: T-Rex 293 SC3 cells not exposed to doxycycline (no increased androgen receptor expression)

Compound | GI50 ([1]; Homo sapiens, T47D, 72 h) [nM] | GI50 [2] [nM] | GI50 ([3]; Homo sapiens, VCaP, 72 h) [nM] | GI50 ([4]; 72 h) [nM] | GI50 [1] [nM] | GI50 ([3]; 72 hours) [nM] | GI50 [4] [nM]
COc1cc(O[C@H]2CC[C@H](NC(=O)c3ncc(N4CCC5(CCC(c6ccc(C7=N[C@@H](C)c8nnc(C)n8-c8sc(C)c(C)c87)cc6)CC5)C4)cn3)CC2)ccc1C#N (stereo partly shown) [Compound I-102] | < 500 | < 500 | < 500 | < 500 | – | – | –
COc1cc(O[C@H]2CC[C@H](NC(=O)c3ccc(N4CCC5(CN(c6ccc(C7=N[C@@H](C)c8nnc(C)n8-c8sc(C)c(C)c87)cc6)CC5(F)F)C4)nn3)CC2)ccc1C#N (stereo partly shown) [Compound I-103] | – | < 500 | 500 to 1500 | < 500 | 500 to 1500 | – | –
COc1cc(O[C@H]2CC[C@H](NC(=O)c3ccc(N4CCC5(CN(c6ccc(C7=N[C@@H](C)c8nnc(C)n8-c8sc(C)c(C)c87)cc6)CC5(F)F)C4)nn3)CC2)ccc1C#N (stereo partly shown) [Compound I-104] | – | < 500 | – | – | 1500 to 3000 | 500 to 1500 | 500 to 1500
COc1cc(O[C@H]2CC[C@H](NC(=O)c3ccc(N4CCC5(CC4)CC(Oc4ccc(C6=N[C@@H](Cc7ncco7)c7nnc(C)n7-c7sc(C)c(C)c76)c(F)c4)C5)nn3)CC2)ccc1C#N [Compound I-128, N-[4-(4-cyano-3-methoxy-phenoxy)cyclohexyl]-6-[2-[3-fluoro-4-[(9S)-4,5,13-trimethyl-9-(oxazol-2-ylmethyl)-3-thia-1,8,11,12-tetrazatricyclo[8.3.0.0^2,6]trideca-2 (6),4,7,10,12-pentaen-7-yl]phenoxy]-7-azaspiro[3.5]nonan-7-yl]pyridazine-3-carboxamide] | – | < 500 | < 500 | < 500 | – | – | –
COc1cc(O[C@H]2CC[C@H](NC(=O)c3ccc(N4CCC5(CCN(c6ccc(C7=NC(Cc8ncco8)c8nnc(C)n8-c8sc(C)c(C)c87)cc6C(F)(F)F)CC5)C4)nn3)CC2)ccc1C#N (stereo partly shown) [Compound I-129] | – | < 500 | – | – | – | < 500 | < 500
COc1cc(O[C@H]2CC[C@H](NC(=O)c3ccc(N4CCC5(CC4)CC(Oc4ccc(C6=N[C@@H](Cc7ncco7)c7nnc(C)n7-c7sc(C)c(C)c76)cc4F)C5)nn3)CC2)ccc1C#N [Compound I-133] | – | < 500 | < 500 | < 500 | – | – | –
COc1cc(O[C@H]2CC[C@H](NC(=O)c3ccc(N4CCC5(CCN(c6ccc(C7=NC(Cc8ncco8)c8nnc(C)n8-c8sc(C)c(C)c87)c(C(F)(F)F)c6)CC5)C4)nn3)CC2)ccc1C#N (stereo partly shown) [Compound I-136] | – | < 500 | – | > 3000 | – | > 3000 | –
COc1cc(O[C@H]2CC[C@H](NC(=O)c3ccc(N4CCC5(CCN(c6ccc(C7=NC(Cc8ncco8)c8nnc(C)n8-c8sc(C)c(C)c87)c(C(F)(F)F)c6)CC5)C4)nn3)CC2)ccc1C#N (stereo partly shown) [Compound I-137] | – | < 500 | – | – | – | < 500 | > 3000
Cc1sc2c(c1C)C(c1ccc(CC3CC4(CCN(c5ncc(C(=O)N[C@H]6C(C)(C)[C@H](Oc7ccc(C#N)c(OC(F)(F)F)c7)C6(C)C)cn5)CC4)C3)cc1)=N[C@@H](Cc1ncco1)c1nnc(C)n1-2 [II-1, N-[3-[4-cyano-3-(trifluoromethoxy)phenoxy]-2,2,4,4-tetramethyl-cyclobutyl]-2-[2-[[4-[(9S)-4,5,13-trimethyl-9-(oxazol-2-ylmethyl)-3-thia-1,8,11,12-tetrazatricyclo[8.3.0.0^2,6]trideca-2 (6),4,7,10,12-pentaen-7-yl]phenyl]methyl]-7-azaspiro[3.5]nonan-7-yl]pyrimidine-5-carboxamide] | < 500 | < 500 | > 3000 | < 500 | – | – | –
Cc1sc2c(c1C)C(c1ccc(OC3CC4(CCN(c5ncc(C(=O)N[C@H]6C(C)(C)[C@H](Oc7ccc(C#N)c(OC(F)(F)F)c7)C6(C)C)cn5)CC4)C3)cc1)=N[C@@H](Cc1ncco1)c1nnc(C)n1-2 [II-2] | < 500 | – | – | – | – | – | –
COc1cc(O[C@H]2C(C)(C)[C@H](NC(=O)c3cnc(N4CCC(CC5CN(c6ccc(C7=N[C@@H](C)c8nnc(C)n8-c8sc(C)c(C)c87)cc6)C5)CC4)nc3)C2(C)C)ccc1C#N [II-3] | < 500 | – | – | – | – | – | –
COc1cc(O[C@H]2C(C)(C)[C@H](NC(=O)c3cnc(N4CCC5(CCN(c6ccc(C7=N[C@@H](C)c8nnc(C)n8-c8sc(C)c(C)c87)cc6)CC5)C4)nc3)C2(C)C)ccc1C#N [II-4, N-[3-(4-cyano-3-methoxy-phenoxy)-2,2,4,4-tetramethyl-cyclobutyl]-2-[8-[4-[(9S)-4,5,9,13-tetramethyl-3-thia-1,8,11,12-tetrazatricyclo[8.3.0.0^2,6]trideca-2 (6),4,7,10,12-pentaen-7-yl]phenyl]-2,8-diazaspiro[4.5]decan-2-yl]pyrimidine-5-carboxamide] | < 500 | < 500 | < 500 | < 500 | – | – | –
COc1cc(O[C@H]2C(C)(C)[C@H](NC(=O)c3ccc(N4CCC5(CC4)CC(Cc4ccc(C6=N[C@@H](C)c7nnc(C)n7-c7sc(C)c(C)c76)cc4)C5)nc3)C2(C)C)ccc1C#N [II-6] | < 500 | – | – | – | – | – | –
COc1cc(O[C@H]2C(C)(C)[C@H](NC(=O)c3cnc(N4CCC5(CCC(c6ccc(C7=N[C@@H](C)c8nnc(C)n8-c8sc(C)c(C)c87)cc6)CC5)C4)nc3)C2(C)C)ccc1C#N [II-7] | < 500 | < 500 | 1500 to 3000 | < 500 | – | – | –
COc1cc(O[C@H]2C(C)(C)[C@H](NC(=O)c3cnc(N4CCC5(CCC(c6ccc(C7=N[C@@H](C)c8nnc(C)n8-c8sc(C)c(C)c87)cc6)CC5)C4)nc3)C2(C)C)ccc1C#N [II-8] | – | – | – | – | 500 to 1500 | – | –
COc1cc(O[C@H]2C(C)(C)[C@H](NC(=O)c3cnc(N4CCC5(CC4)CC(Cc4ccc(C6=N[C@@H](Cc7ncco7)c7nnc(C)n7-c7sc(C)c(C)c76)c(F)c4)C5)nc3)C2(C)C)ccc1C#N [II-13] | – | < 500 | < 500 | < 500 | – | – | –
COc1cc(O[C@H]2C(C)(C)[C@H](NC(=O)c3cnc(N4CCC5(CC4)CC(Oc4ccc(C6=N[C@H](Cc7ncco7)c7nnc(C)n7-c7sc(C)c(C)c76)cc4)C5)nc3)C2(C)C)ccc1C#N [II-14] | – | < 500 | > 3000 | > 3000 | – | – | –
CCc1csc2c1C(c1ccc(OC3CC4(CCN(c5ncc(C(=O)N[C@H]6C(C)(C)[C@H](Oc7ccc(C#N)c(OC)c7)C6(C)C)cn5)CC4)C3)cc1)=N[C@@H](Cc1ncco1)c1nnc(C)n1-2 [III-1, N-[(1r,3r)-3-(4-cyano-3-methoxy-phenoxy)-2,2,4,4-tetramethyl-cyclobutyl]-2-[2-[4-[(9S)-5-ethyl-13-methyl-9-(oxazol-2-ylmethyl)-3-thia-1,8,11,12-tetrazatricyclo[8.3.0.0^2,6]trideca-2 (6),4,7,10,12-pentaen-7-yl]phenoxy]-7-azaspiro[3.5]nonan-7-yl]pyrimidine-5-carboxamide] | – | < 500 | < 500 | 500 to 1500 | – | – | –
COc1cc(O[C@H]2C(C)(C)[C@H](NC(=O)c3cnc(N4CCC5(CC4)CC(Oc4ccc(C6=N[C@@H](Cc7ncco7)c7nnc(C)n7-c7sc(CO)c(C)c76)cc4)C5)nc3)C2(C)C)ccc1C#N [III-2, N-[(1r,3r)-3-(4-cyano-3-methoxy-phenoxy)-2,2,4,4-tetramethyl-cyclobutyl]-2-[2-[4-[(9S)-4-(hydroxymethyl)-5,13-dimethyl-9-(oxazol-2-ylmethyl)-3-thia-1,8,11,12-tetrazatricyclo[8.3.0.0^2,6]trideca-2 (6),4,7,10,12-pentaen-7-yl]phenoxy]-7-azaspiro[3.5]nonan-7-yl]pyrimidine-5-carboxamide] | – | < 500 | < 500 | < 500 | – | – | –
COc1cc(O[C@H]2C(C)(C)[C@@H](NC(=O)c3cnc(N4CCC5(CC4)CC(Oc4ccc(C6=NC(Cc7ncco7)c7nnc(C)n7-c7sc(C)c(C)c76)cc4)C5)nc3)C2(C)C)ccc1C#N (stereo partly shown) [III-3, N-[(1r,3s)-3-(4-cyano-3-methoxy-phenoxy)-2,2,4,4-tetramethyl-cyclobutyl]-2-[2-[4-[4,5,13-trimethyl-9-(oxazol-2-ylmethyl)-3-thia-1,8,11,12-tetrazatricyclo[8.3.0.0^2,6]trideca-2 (6),4,7,10,12-pentaen-7-yl]phenoxy]-7-azaspiro[3.5]nonan-7-yl]pyrimidine-5-carboxamide] | – | < 500 | < 500 | < 500 | – | – | –

— patent publication US12668599B2, “Heterobifunctional compounds and methods of treating disease” (Halda Therapeutics OpCo, Inc., priority 2023, dated 2026)
